Experimental findings from patent publication US9464084B2, “P2X7 modulators” (Janssen Pharmaceutica NV, priority 2013, dated 2016) are described below.

Assay [1] concerns the target T1, P2X7 (Homo sapiens (Human), UniProt Q99572). The assay can be described thus: P2X7 antagonism in human PBMCs (LPS + Bz-ATP induced IL-1β release, ELISA).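 On all read-outs here: PBMCs from donor human blood, with a further 1.5 h incubation of the cells in the assay.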 The assay is classed as cell-based. The settings on record: LPS 30 ng/ml, Bz-ATP 0.5 mM; for PBMC 10 μM (% control): compound 10 μM; for PBMC 1 μM (% control): compound 1 μM.
Assay [2] addresses T1, P2X7. Description: Radioligand binding, tritiated A-804598, human P2X7-1321N1 cell membranes.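 Further: ki obtained from the binding IC50 after correction for tracer concentration and tracer affinity.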 The settings on record: 1 hour at 4° C.
Method: On the day of the experiment, cell membrane preparations were made according to standard published methods. […] The assay was terminated by filtration (GF/B filters pre-soaked with 0.3% PEI) and washed with washing buffer (Tris-HCl 50 mM). The IC50 generated in the binding assay was corrected for tracer concentration and affinity of the tracer to derive at the affinity (Ki) of the test compounds.
In assay [3] the target is T1, P2X7. Description: Ca2+ flux (FLIPR) in 1321N1 cells expressing recombinant human P2X7 channel.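 Further: Calcium-4 dye-loaded cells exposed to compound for 30 min before agonist addition, fluorescence change read 180 s after agonist.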 The assay is classed as cell-based. The settings on record: 250 μM BzATP. Background: Calcium flux is commonly read through the fluorescence of an indicator in the cells.
The next assay concerns the target rat P2X7 (Rattus norvegicus (Rat), UniProt Q64663). Description: Ca2+ flux (FLIPR) in 1321N1 cells expressing recombinant rat P2X7 channel.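 Further: Calcium-4 dye fluorescence change read 180 s after agonist addition, following 30 min cell preincubation with test compound.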 Format: cell-based. Particulars: 250 μM BzATP.

In general, Ki refers to a dissociation constant, usually derived from enzyme kinetics or from competition with a known ligand. A lower Ki goes with a stronger hold on the target. The term IC50 denotes the concentration that gives 50% inhibition.

Where a name gives a salt, the structure may show the parent alone.

rat P2X7, sequence (Q64663 whole entry): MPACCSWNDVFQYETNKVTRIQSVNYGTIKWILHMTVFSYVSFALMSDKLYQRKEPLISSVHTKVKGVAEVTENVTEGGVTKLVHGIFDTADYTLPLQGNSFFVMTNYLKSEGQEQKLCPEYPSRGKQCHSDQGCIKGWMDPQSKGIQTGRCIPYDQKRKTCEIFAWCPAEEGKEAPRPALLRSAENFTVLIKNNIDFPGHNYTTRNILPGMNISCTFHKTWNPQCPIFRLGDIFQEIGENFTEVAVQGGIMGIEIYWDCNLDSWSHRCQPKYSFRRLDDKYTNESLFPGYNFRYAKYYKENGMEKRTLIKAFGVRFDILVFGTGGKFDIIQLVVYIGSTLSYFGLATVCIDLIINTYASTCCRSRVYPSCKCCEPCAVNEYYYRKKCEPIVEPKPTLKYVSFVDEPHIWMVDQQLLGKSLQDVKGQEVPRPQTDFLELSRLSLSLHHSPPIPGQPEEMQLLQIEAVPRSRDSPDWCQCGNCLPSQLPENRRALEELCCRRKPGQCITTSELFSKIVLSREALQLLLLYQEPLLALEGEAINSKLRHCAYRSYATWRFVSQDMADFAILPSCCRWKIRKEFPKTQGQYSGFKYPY
T1 sequence (Q99572 whole entry): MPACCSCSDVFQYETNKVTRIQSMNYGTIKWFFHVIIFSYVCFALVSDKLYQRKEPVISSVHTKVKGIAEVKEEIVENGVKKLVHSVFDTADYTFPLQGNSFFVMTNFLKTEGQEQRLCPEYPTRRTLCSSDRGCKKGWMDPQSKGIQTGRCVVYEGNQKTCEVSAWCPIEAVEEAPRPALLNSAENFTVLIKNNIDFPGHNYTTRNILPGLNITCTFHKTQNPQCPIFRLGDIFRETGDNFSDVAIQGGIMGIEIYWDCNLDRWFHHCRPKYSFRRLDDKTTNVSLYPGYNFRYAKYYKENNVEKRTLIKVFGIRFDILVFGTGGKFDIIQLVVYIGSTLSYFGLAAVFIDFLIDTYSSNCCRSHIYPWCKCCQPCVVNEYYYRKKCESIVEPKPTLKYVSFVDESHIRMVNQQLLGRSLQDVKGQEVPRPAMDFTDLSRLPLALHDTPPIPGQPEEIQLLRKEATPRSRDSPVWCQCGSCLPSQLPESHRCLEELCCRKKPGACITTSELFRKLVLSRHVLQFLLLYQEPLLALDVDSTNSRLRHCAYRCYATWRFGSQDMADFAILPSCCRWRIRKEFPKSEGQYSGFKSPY

Turning to `CC1c2nnn(-c3cnccn3)c2CCN1C(=O)c1ccc(Cl)cc1Cl` (stereo not drawn) [Example 279, (2,4-dichlorophenyl)(4-methyl-1-(pyrazin-2-yl)-6,7-dihydro-1H-[1,2,3]triazolo[4,5-c]pyridin-5(4H)-yl)methanone], the “PBMC 10 μM (% control)” value on P2X7 [1] is on record as −16.9 % control. Besides, on P2X7 [2], the inhibitory constant (Ki) came out at 11.5 nM. The 50% inhibitory concentration (IC50) at P2X7 [3] worked out at 8.6 nM; at rat P2X7, 438 nM.

As for `O=C(c1cccc(C(F)(F)F)c1Cl)N1CCc2c(ncn2-c2ccn[nH]2)C1` [Example 5, (1-(1H-Pyrazol-5-yl)-6,7-dihydro-1H-imidazo[4,5-c]pyridin-5(4H)-yl)(2-chloro-3-(trifluoromethyl)phenyl)methanone], the “PBMC 10 μM (% control)” value at P2X7 [1] came to 11.6 % control. Besides, at P2X7 [2], the inhibition constant Ki worked out at 31.6 nM. Besides, the figures for the IC50 on P2X7 [3] and at rat P2X7 were 12.4 nM and 324 nM, respectively.

Consider `CCOC(=O)C1c2ncn(-c3ccccn3)c2CCN1C(=O)c1cccc(Cl)c1Cl` (stereo not drawn) [Example 25, Ethyl 5-(2,3-dichlorobenzoyl)-1-(pyridin-2-yl)-4,5,6,7-tetrahydro-1H-imidazo[4,5-c]pyridine-4-carboxylate], for which the “PBMC 1 μM (% control)” value on P2X7 [1] is recorded as 9.7 % control. For the same compound, the Ki on P2X7 [2] turned out to be 74.1 nM. Also, the IC50 on P2X7 [3] turned out to be 111 nM; at rat P2X7, 3270 nM.

As to `Cc1cncc(-n2nnc3c2CCN(C(=O)c2cccc(C(F)(F)F)c2Cl)C3C)n1` (stereo not drawn) [Example 251, (2-Chloro-3-(trifluoromethyl)phenyl)(4-methyl-1-(6-methylpyrazin-2-yl)-6,7-dihydro-1H-[1,2,3]triazolo[4,5-c]pyridin-5(4H)-yl)methanone], at P2X7 [1], the “PBMC 10 μM (% control)” value was 11.6 % control. Further, the Ki on P2X7 [2] amounted to 144 nM. In addition, the IC50 turned out to be 124 nM at P2X7 [3] and 9110 nM at rat P2X7.

Regarding `CN(C)C(=O)C1c2ncn(-c3ccccn3)c2CCN1C(=O)c1cccc(C(F)(F)F)c1Cl` (stereo not drawn) [Example 34, 5-{[2-Chloro-3-(trifluoromethyl)phenyl]carbonyl}-N,N-dimethyl-1-pyridin-2-yl-4,5,6,7-tetrahydro-1H-imidazo[4,5-c]pyridine-4-carboxamide], the “PBMC 1 μM (% control)” value at P2X7 [1] was determined as 29.8 % control. This compound displayed a Ki at P2X7 [2] of 631 nM. Besides, the concentration for half-maximal inhibition (IC50) on P2X7 [3] and at rat P2X7 was 158 nM each time.

In the case of `O=C(c1cccc(C(F)(F)F)c1Cl)N1CCc2c(ncn2-c2ccccc2)C1` [Example 2, (2-Chloro-3-(trifluoromethyl)phenyl)(1-phenyl-6,7-dihydro-1H-imidazo[4,5-c]pyridin-5(4H)-yl)methanone], the “PBMC 1 μM (% control)” value on P2X7 [1] was 7.9 % control. Moreover, at P2X7 [2], the affinity corresponds to a Ki of 87.1 nM. The figures for the 50% inhibitory concentration (IC50) on P2X7 [3] and at rat P2X7 were 18.4 nM and 1940 nM, respectively.

With `Cc1ccc(-n2nnc3c2CCN(C(=O)c2cccc(Cl)c2Cl)C3C)nc1` (stereo not drawn) [Example 336, (2,3-dichlorophenyl)(4-methyl-1-(5-methylpyridin-2-yl)-6,7-dihydro-1H-[1,2,3]triazolo[4,5-c]pyridin-5(4H)-yl)methanone], on P2X7 [1], the “PBMC 10 μM (% control)” value was −0.5 % control. At P2X7 [2], this compound yielded a Ki of 372 nM. For the same compound, the figures for the IC50 on P2X7 [3] and on rat P2X7 were 289 nM and 2160 nM, respectively.

For `O=C(c1cccc(C(F)(F)F)c1Cl)N1CCc2c(-c3ccccn3)n[nH]c2C1` [Example 93, 6-{[2-Chloro-3-(trifluoromethyl)phenyl]carbonyl}-3-pyridin-2-yl-4,5,6,7-tetrahydro-2H-pyrazolo[3,4-c]pyridine. TFA salt], the “PBMC 1 μM (% control)” value on P2X7 [1] was determined as 9.0 % control. Moreover, affinity on P2X7 [2] was put at a Ki of 39.8 nM. Moreover, the IC50 on P2X7 [3] was 7.9 nM; on rat P2X7 it was 251 nM.

Take `CC1c2nnn(-c3cnccn3)c2C=CN1C(=O)c1cccc(C(F)(F)F)c1Cl` (stereo not drawn) [Example 72, 5-{[2-Chloro-3-(trifluoromethyl)phenyl]carbonyl}-4-methyl-1-pyrazin-2-yl-4,5-dihydro-1H-[1,2,3]triazolo[4,5-c]pyridine]: the “PBMC 1 μM (% control)” value at P2X7 [1] is −5.7 % control. Also, at P2X7 [2], the affinity corresponds to a Ki of 29.5 nM. The results for the half-maximal inhibitory concentration (IC50) at P2X7 [3] and on rat P2X7 were 4.2 nM and 169 nM, respectively.

Consider `CC1c2nnn(-c3ccc(F)cc3)c2CCN1C(=O)c1cccc(C(F)(F)F)c1Cl` (stereo not drawn) [Example 83, 5-{[2-Chloro-3-(trifluoromethyl)phenyl]carbonyl}-1-(4-fluorophenyl)-4-methyl-4,5,6,7-tetrahydro-1H-[1,2,3]triazolo[4,5-c]pyridine], for which the “PBMC 10 μM (% control)” value at P2X7 [1] turned out to be 4.5 % control. Besides, the Ki on P2X7 [2] came out at 158 nM. In addition, the 50% inhibitory concentration (IC50) on P2X7 [3] turned out to be 16.9 nM; at rat P2X7, 397 nM.

As for `O=C(c1cccc(Cl)c1Cl)N1CCc2c(nnn2-c2ccccc2)C1` [Example 62, 5-[(2,3-Dichlorophenyl)carbonyl]-1-phenyl-4,5,6,7-tetrahydro-1H-[1,2,3]triazolo[4,5-c]pyridine], the “PBMC 1 μM (% control)” value at P2X7 [1] is 5.2 % control. In addition, the affinity on P2X7 [2] corresponds to a Ki of 43.7 nM. Further, the values for the half-inhibitory concentration (IC50) at P2X7 [3] and at rat P2X7 were 76.2 nM and 4280 nM, respectively.

`CC1Cc2c(-c3ccnn3C)nn(C)c2CN1C(=O)c1cccc(C(F)(F)F)c1Cl` (stereo not drawn) [Example 266, (2-chloro-3-(trifluoromethyl)phenyl)(1,5-dimethyl-3-(1-methyl-1H-pyrazol-5-yl)-4,5-dihydro-1H-pyrazolo[3,4-c]pyridin-6(7H)-yl)methanone]: the “PBMC 10 μM (% control)” value at P2X7 [1] is recorded as 5.8 % control. The compound also yielded a Ki on P2X7 [2] of 20 nM. The figures for the IC50 at P2X7 [3] and on rat P2X7 were 12.7 nM and 12.6 nM, respectively.

As for `Cn1nc(-c2ccccc2)c2c1CN(C(=O)c1cccc(Cl)c1Cl)CC2` [Example 103, 6-[(2,3-Dichlorophenyl)carbonyl]-1-methyl-3-phenyl-4,5,6,7-tetrahydro-1H-pyrazolo[3,4-c]pyridine], the “PBMC 1 μM (% control)” value on P2X7 [1] was found to be 56.0 % control. The compound also displayed a Ki at P2X7 [2] of 275 nM. In addition, on P2X7 [3], the 50% inhibitory concentration (IC50) turned out to be 392 nM.

With `O=C(c1cccc(C(F)(F)F)c1Cl)N1CCc2c(ncn2-c2cnccn2)C1` [Example 6, (2-Chloro-3-(trifluoromethyl)phenyl)(1-(pyrazin-2-yl)-6,7-dihydro-1H-imidazo[4,5-c]pyridin-5(4H)-yl)methanone], the “PBMC 1 μM (% control)” value at P2X7 [1] is recorded as 14.3 % control. For the same compound, at P2X7 [2], the inhibition constant (Ki) is 42.7 nM. Moreover, the half-inhibitory concentration (IC50) on P2X7 [3] is 9.4 nM.

With `CC1c2nnn(-c3ncco3)c2CCN1C(=O)c1cccc(C(F)(F)F)c1Cl` (stereo not drawn) [Example 250], the “PBMC 10 μM (% control)” value on P2X7 [1] is −1.3 % control. Affinity on P2X7 [2] was put at a Ki of 39.8 nM. The IC50 on P2X7 [3] stood at 8.6 nM.

On to `CC1Cc2c(nnn2-c2cc(F)ccn2)CN1C(=O)c1cccc(C(F)(F)F)c1Cl` (stereo not drawn) [Example 176, (2-Chloro-3-(trifluoromethyl)phenyl)(1-(4-fluoropyridin-2-yl)-6-methyl-6,7-dihydro-1H-[1,2,3]triazolo[4,5-c]pyridin-5(4H)-yl)methanone], for which the “PBMC 10 μM (% control)” value at P2X7 [1] was 7.3 % control. On P2X7 [2], the Ki worked out at 31.6 nM. Further, the IC50 on P2X7 [3] was 8 nM.

Consider `Cc1nc2c(n1-c1ccccc1)CCN(C(=O)c1cccc(Cl)c1Cl)C2` [Example 331, (2,3-dichlorophenyl)(2-methyl-1-phenyl-6,7-dihydro-1H-imidazo[4,5-c]pyridin-5(4H)-yl)methanone], for which the “PBMC 10 μM (% control)” value on P2X7 [1] was −11.0 % control. This compound had a Ki at P2X7 [2] of 178 nM. For the same compound, at P2X7 [3], the IC50 is 148 nM.

For `O=C(c1cccc(C(F)(F)F)c1F)N1CCc2c(nc(C(F)(F)F)n2-c2ccccc2)C1` [Example 57, 5-{[2-Fluoro-3-(trifluoromethyl)phenyl]carbonyl}-1-phenyl-2-(trifluoromethyl)-4,5,6,7-tetrahydro-1H-imidazo[4,5-c]pyridine], the “PBMC 10 μM (% control)” value at P2X7 [1] is recorded as 46.7 % control. For the same compound, the inhibition constant Ki on P2X7 [2] worked out at 794 nM. The IC50 on P2X7 [3] was found to be 718 nM.

On to `O=C(c1cccc(C(F)(F)F)c1Cl)N1CCc2c(nnn2-c2cccc(F)n2)C1` [Example 135, (2-Chloro-3-(trifluoromethyl)phenyl)(1-(6-fluoropyridin-2-yl)-6,7-dihydro-1H-[1,2,3]triazolo[4,5-c]pyridin-5(4H)-yl)methanone], for which the “PBMC 10 μM (% control)” value at P2X7 [1] is given as 1.7 % control. Moreover, the Ki on P2X7 [2] turned out to be 100 nM. Moreover, the concentration for half-maximal inhibition (IC50) on P2X7 [3] came out at 48.2 nM.

As to `O=C(c1cccc(Cl)c1Cl)N1CCc2c(ncn2-c2ccn[nH]2)C1` [Example 60, 5-[(2,3-Dichlorophenyl)carbonyl]-1-(1H-pyrazol-5-yl)-4,5,6,7-tetrahydro-1H-imidazo[4,5-c]pyridine], the “PBMC 10 μM (% control)” value at P2X7 [1] amounted to 8.4 % control. The compound also had an inhibition constant (Ki) at P2X7 [2] of 100 nM. Besides, the IC50 on P2X7 [3] is 55.7 nM.

For `O=C(c1cccc(C(F)(F)F)c1Cl)N1CCc2c(nnn2-c2ncc(F)cn2)C1` [Example 64, 5-{[2-Chloro-3-(trifluoromethyl)phenyl]carbonyl}-1-(5-fluoropyrimidin-2-yl)-4,5,6,7-tetrahydro-1H-[1,2,3]triazolo[4,5-c]pyridine], the “PBMC 10 μM (% control)” value on P2X7 [1] is reported as −9.2 % control. The compound further returned a Ki at P2X7 [2] of 31.6 nM. For the same compound, the concentration for half-maximal inhibition (IC50) at P2X7 [3] came out at 14.3 nM.

On to `C[C@H]1c2nnn(-c3ccccn3)c2CCN1C(=O)c1ccc(F)c(Cl)c1Cl` (single isomer, unassigned) [Example 142, (S*)-(2,3-Dichloro-4-fluorophenyl)(4-methyl-1-(pyridin-2-yl)-6,7-dihydro-1H-[1,2,3]triazolo[4,5-c]pyridin-5(4H)-yl)methanone], for which the “PBMC 10 μM (% control)” value at P2X7 [1] was 33.8 % control. The same compound registered a Ki at P2X7 [2] of 10 nM. The IC50 on P2X7 [3] turned out to be 2 nM.

`O=C(c1cccc(C(F)(F)F)c1Cl)N1CCc2c(nnn2-c2ccccc2OCCF)C1` [Example 126, (2-Chloro-3-(trifluoromethyl)phenyl)(1-(2-(2-fluoroethoxy)phenyl)-6,7-dihydro-1H-[1,2,3]triazolo[4,5-c]pyridin-5(4H)-yl)methanone]: the “PBMC 1 μM (% control)” value at P2X7 [1] turned out to be 71.7 % control. The compound also returned a Ki at P2X7 [2] of 93.3 nM. Also, the concentration for half-maximal inhibition (IC50) at P2X7 [3] was found to be 85.5 nM.
